Data as given in article PMC3422614 (Biochemistry, 2011).
Entries after “also recorded” stand apart in the source; their conditions may differ. Where two headings read alike, the source gives them in different places. Where no end group is shown, it is not given here.

Legend:
[1] = molecular target: T1, ERK2 (Rattus norvegicus, UniProt P63086); test: Dose-response effect of docking ligands on ERK2 phosphorylation of Sub-D; type: biochemical
[2] = molecular target: T1, ERK2; test: Dose-response effect of docking ligands on ERK2 phosphorylation of Sub-F; type: biochemical
[3] = molecular target: T1, ERK2; test: Inhibition patterns for the phosphorylation of Sub-D by ERK2; type: biochemical
[4] = molecular target: T1, ERK2; test: Inhibition patterns for the phosphorylation of Sub-F by ERK2; type: biochemical
[5] = molecular target: T1, ERK2; type: biochemical
[6] = molecular target: T1, ERK2; test: Kinetics of Sub-F phosphorylation by ERK2 at saturating Lig-D; type: biochemical
[7] = molecular target: T1, ERK2; conditions: protein substrate; cited from earlier work
[8] = tested on: ERK•Ets-1 complex; conditions: cited from earlier work

T1 sequence (P63086 whole entry): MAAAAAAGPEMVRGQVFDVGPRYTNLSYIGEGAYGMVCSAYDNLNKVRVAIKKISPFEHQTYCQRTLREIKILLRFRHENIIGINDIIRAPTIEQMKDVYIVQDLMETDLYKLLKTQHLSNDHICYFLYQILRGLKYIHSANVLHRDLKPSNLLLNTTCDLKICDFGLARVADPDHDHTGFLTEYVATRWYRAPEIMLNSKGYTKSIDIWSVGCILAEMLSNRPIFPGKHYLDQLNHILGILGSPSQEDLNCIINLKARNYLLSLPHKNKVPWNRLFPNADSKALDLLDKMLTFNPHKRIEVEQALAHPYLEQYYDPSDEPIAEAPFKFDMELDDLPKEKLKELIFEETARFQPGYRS

CC(=O)N[C@@H](Cc1ccccc1)C(=O)N[C@@H](CCC(N)=O)C(=O)N[C@@H](CCCNC(=N)N)C(=O)N[C@@H](CCCCN)C(=O)N[C@H](C(=O)N[C@@H](CC(C)C)C(=O)N[C@@H](CCC(N)=O)C(=O)N[C@@H](CCCNC(=N)N)C(=O)N[C@@H](CCCNC(=N)N)C(=O)N[C@@H](CC(N)=O)C(=O)N[C@@H](CC(C)C)C(=O)N[C@@H](CCCCN)C(=O)NCC(=O)N[C@@H](CC(C)C)C(=O)N[C@@H](CC(N)=O)C(=O)N[C@@H](CC(C)C)C(=O)N[C@@H](CC(N)=O)C(=O)N[C@@H](CC(C)C)C(N)=O)[C@@H](C)O [Lig-D]
IC50 [1]: 30 ± 4 µM
EC50 [2]: 10 ± 8 µM

Nc1ncnc2c1ncn2[C@@H]1O[C@H](COP(=O)([O-])OP(=O)([O-])O)[C@@H](O)[C@H]1O.[Mg+2] [MgADP]
Mechanism of inhibition ([3]; varied MgATP, fixed Sub-D): competitive pattern for towards MgATP^2-
Mechanism of inhibition ([3]; varied Sub-D, fixed MgATP): Noncompetitive
Mechanism of inhibition ([4]; varied MgATP, fixed Sub-F): competitive pattern for towards MgATP^2-
Mechanism of inhibition ([4]; varied Sub-F, fixed MgATP): Noncompetitive

Ac-YAPRAPAKLAFQFPSR-NH2 [Lig-F]
Mechanism of inhibition ([4]; varied MgATP, fixed Sub-F): Noncompetitive
Mechanism of inhibition ([4]; varied Sub-F, fixed MgATP): Competitive
Effect on Sub-D phosphorylation (kobs) ([1]; Fig. 5A, Sub-D 3 μM, 1 mM MgATP, increasing ligand): no effect on kobs for the phosphorylation of Sub-D; also recorded: no effect on the ability of ERK2 to phosphorylate Sub-D
IC50 [2]: 35 ± 3 µM
Effect on Sub-F phosphorylation (kobs) ([2]; Fig. 5B, Sub-F 15 μM, 1 mM MgATP, increasing ligand): competitively inhibits Sub-F

YAEPLTPRILAKWEWPA-NH2 [Sub-F]
Ki [5]: 3.3 ± 1.1 µM
Ki [6]: 5 ± 2 µM

B1: Ets: murine (His6-tagged)Ets1(1-138), protein substrate of ERK2 (protein, UniProt P27577 1-138, looked up, fragment)
chain: MKAAVDLKPTLTIIKTEKVDLELFPSPDMECADVPLLTPSSKEMMSQALKATFSGFTKEQQRLGIPKDPRQWTETHVRDWVMWAVNEFSLKGVDFQKFCMSGAALCALGKECFLELAPDFVGDILWEHLEILQKEDVK
modifications: His6 tag
kcat ([5]; Table 1, fit to eqn. 2, 27 °C, pH 7.4, 2 nM ERK2): 17 ± 1 S^−1
Kinetic mechanism of phosphorylation [7]: random-order mechanism
kcat/Km [7]: 6e+06 M⁻¹ s⁻¹
stabilization of the ERK•Ets-1 complex by Ets-1 N-terminus docking to the DRS [8]: approximately 10 fold
